Source: patent US10980850B2, “Use of IAP inhibitor and oncolytic virus in preparation of anti-tumor drug” (Guangzhou Virotech Pharmaceutical Co., Ltd., priority 2016, dated 2021)

How the values were obtained:
Caspase 3/7, 8, and 9 [1] = assay: Caspase activity (chemiluminescence/MTT) in HCT116 cells; format: cell-based, human; conditions: M1 1 MOI, LCL161 5 μM, 72 hours, vs control
Protocol: (§1) The cells in the exponential growth phase were selected and added into a DMEM complete culture medium (containing 10% fetal bovine serum and 1% penicillin/streptomycin (Life Technologies)) to prepare a cell suspension. The cells were inoculated into a 96-well culture plate at a density of 4×10^3/well. After 12 hours, the cells were completely adherent to the walls of the culture plate. In this experiment, cultures were divided into a control group, a single drug group (using LCL161 alone), a group infected with M1, and a group treated with combined LCL161/M1. The doses used were as follows: cells were infected with M1 at 1 MOI ([…]) or 0.1 MOI (Huh7 cells), and LCL161 was added at a concentration of 5 μM. Each of the above mentioned treatment groups was divided in four for detecting MTT and the activities of Caspase 3/7, 8 and 9. 72 hours after treatment, the reagent for detecting Caspase3/7, 8 and 9 was added into each well on the basis of the volume, and the resulting wells were placed into the incubator for a further half hour. The liquid was absorbed into the opaque 96 well plate for measuring the chemical luminous intensity by a microplate reader. Meanwhile, MTT was detected to calculate the survival rate of the cells. The activity of Caspase was standardized by the ratio of chemiluminescent value to MTT value.

[2] = test system: transplantable tumor of Huh7 cancer strain; assay: Transplantable tumor of Huh7 in nude mice; format: in vivo, BALB/c nude mice; conditions: Huh7 tumors; LCL161 i.p. 20 mg/kg/d; M1 tail vein 5×10^5 PFU/time; four injections day 10-13
Protocol: (§2) The present experiment was performed as a randomized and single-blinded trial. 5×10^6 HCT116 or 1×10^7 Huh7 cells were subcutaneously injected into dorsa of 4-week-aged BALB/c nude mice. When the size of tumors reached 50 mm^3, the mice were divided into groups, including an untreated control group (Control), a group treated with LCL161 alone (i.p. 20 mg/kg/d), a group infected with M1 alone (transplantable tumor of HCT116 cancer strain was injected with M1 virus via tail vein (2×10^6 PFU/time), and transplantable tumor of Huh7 cancer strain was injected with M1 virus via tail vein (5×10^5 PFU/time)) and a group treated with LCL161/M1 (LCL161 and M1 virus were administered in the same way at the same dose), and four injections was performed continuously (for HCT116, injection was conducted on day 5, day 6, day 7, and day 8; for Huh7, injection was conducted on day 10, day 11, day 12, and day 13). The weight, length and width of the tumor were measured every two days, and the volume of the tumor was calculated according to the formula: (length×width^2)/2. After measuring the volume of the tumor, one way ANOVA statistics was carried out, wherein *** indicates p<0.001, ** indicates p<0.01, and * indicates p<0.05.

Caspase 3/7, 8, and 9 [3] = assay: Caspase activity (chemiluminescence/MTT) in Huh7 cells; format: cell-based, human; conditions: M1 0.1 MOI, LCL161 5 μM, 72 hours, vs control
Protocol: as §1

[4] = test system: transplantable tumor of HCT116 cancer strain; assay: Transplantable tumor of HCT116 in nude mice; format: in vivo, BALB/c nude mice; conditions: HCT116 tumors
Protocol: as §2

[5] = test system: human colorectal cancer cell line HCT116; assay: MTT survival rate of HCT116 cells (LCL161/Birinapant, M1 virus); format: cell-based; conditions: MTT 72 hours, 5 μM LCL161, MOI of M1 not stated (FIG. 2(A))
Protocol: a) Inoculation of cells and administration treatment: cells in the exponential growth phase were selected and added into a DMEM complete culture medium (containing 10% fetal bovine serum and 1% penicillin/streptomycin (Life Technologies)) to prepare a cell suspension. The cells were inoculated into a 96-well culture plate at a density of 4×10^3/well. After 12 hours, the cells were completely adherent to the wells. The experiment was divided into a control group and a single drug group (using 5 μM LCL161 or Birinapant alone), a group infected with M1 and a group treated with LCL161/M1 or Birinapant/M1. In M1-containing assays, virus was provided at varying MOI. The concentration of LCL161 or Birinapant was 5 μM • b) Reaction of MTT with succinate dehydrogenase in the cells: 72 hours after culture, 20 μl MTT (5 mg/ml) was added into each well, and was incubated for a further 4 hours. After incubation, granular blue and purple formazan crystals formed in the living cells were observed by microscopic examination. • c) Dissolution of formazan particles: those cultures having cells with formazan crystals were further processed as follows. […] The optical density (OD value) of each well was detected in an enzyme linked detector at a wavelength of 570 nm. […] The calculated survival rate of the cells=OD value of the drug treatment group/OD value of the control group×100%. […]

pancreatic cancer = conditions: 10 μmol/L alone; cells without drugs 17%; cited from earlier work

| Structure (SMILES) | activities of Caspase 3/7, 8, and 9 (Caspase 3/7, 8, and 9 [1]) | reduction in tumor volume as compared with the control group [2] | activities of Caspase 3/7, 8, and 9 (Caspase 3/7, 8, and 9 [3]) | reduction in tumor volume as compared with the control group ([4]; LCL161 i.p. 20 mg/kg/d, M1 tail vein 2×10^6 PFU/time, four injections day 5-8) | tumor volume (in words) ([4]; same dosing, vs control group) | survival rate [5] | apoptosis rate (pancreatic cancer) |
| --- | --- | --- | --- | --- | --- | --- | --- |
| CN[C@@H](C)C(=O)N[C@H](C(=O)N1CCC[C@H]1c1nc(C(=O)c2ccc(F)cc2)cs1)C1CCCCC1 [LCL161] | only slightly up-regulated | 18.1% | only slightly up-regulated | 29.15% | only a slight reduction in tumor volume | 92.6% | – |
| Nc1ccn([C@@H]2O[C@H](CO)[C@@H](O)C2(F)F)c(=O)n1 [Gemcitabine] | – | – | – | – | – | – | 58% |
